Experimental data reported in article PMC9632241 (Antiviral Research, 2022).

Biological target: SARS-CoV-1 M^pro (Severe acute respiratory syndrome-related coronavirus, UniProt P0C6U8)
Assay: biochemical

CCOC(=O)/C=C/[C@H](C[C@@H]1CCNC1=O)NC(=O)[C@@H](CC(=O)[C@@H](NC(=O)c1cc(C)on1)C(C)C)Cc1ccc(F)cc1 [rupintrivir, 4-{2-(4-fluoro-benzyl)-6-methyl-5-[(5-methyl-isoxazole-3-carbonil)-amino]-4-oxo-heptanoylamino}-5-(2-oxo-pyrrolidin-3-yl)-pentanoicacidethylester]
IC50: 66 µM
